Here are results for one compound from patent US8173771B2, “Humanin receptor or humanin-like polypeptide receptor” (Keio Univeristy, priority 2005, dated 2012).

This assay deals with HN receptor (HNR; CNTF-R/WSX-1/gp130) on F11 cells. Put plainly: Immunofluorescence-based binding assay (2): biotin-HN / biotin-HNG binding to F11 cells. Set-up: species or system mouse. Here is the method:
A) F11 cells were seeded on 96-well plates coated with poly-L-lysine (7×10^3 cells/well). An indicated amount of biotin-HN or biotin-HNG was added to the cells with or without 10 μM of unlabelled HNG or HNA, followed by a binding assay based on immunofluorescence reaction (2) (left panels). On the other hand, F11 cells were transfected with 0.5 μg of pcDNA3.1/GS-human CNTF-R, pEF1/MycHis-human WSX-1, and 1.0 μg of pCAG-human gp130. At 24 hrs after the transfection, the cells were re-seeded on 96-well plates coated with poly-L-lysine (7×10^3 cells/well). After 36 hrs the re-seeding, an indicated amount of biotin-HN or biotin-HNG was added to the cells with or without 10 μM of unlabeled HNG or HNA, followed by a binding assay based on immunofluorescence reaction (2) (right panels).
B) F11 cells were transfected with 0.5 μg of pRNA-U1.6/Shuttle vector, pRNA-U6.1/Shuttle-WSX-1 siRNA, pRNA-U6.1/Shuttle-CNTF-R siRNA, both pRNA-U6.1/Shuttle-WSX-1 siRNA and pRNA-U6.1/Shuttle-CNTF-R siRNA (0.5 μg each), pRNA-U6.1/Shuttle-FPR2 siRNA or pRNA-U6.1/Shuttle-LIFR siRNA. The total amount of vectors was adjusted to be 1.0 μg by including a backbone vector. At 24 hrs after the transfection, an indicated amount of biotin-HNG was added with or without unlabeled HNG, followed by a binding assay based on immunofluorescence reaction (2) at 72 hrs after the transfection.
E) F11 cells on 6-well plate (7×10^4 cells/well) were transfected with 1.0 μg of pRNA-U6.1/Shuttle vector, pRNA-U6.1/Shuttle-Bax siRNA, or both pRNA-U6.1/Shuttle-WSX-1 siRNA and pRNA-U6.1/Shuttle-CNTF-R siRNA (0.5 μg each). At 72 hrs after the transfection, the cells were added with an indicated amount of biotin-HN with or without unlabeled HN or HNA (100 μM) and subjected to an HN-binding assay based on immunofluorescence.
F11 cells (7×10^4/well in 6-well plates) were replated into 96-well plates (7×10^3 cells/well) at 24 hrs after transfection with indicated amounts of the plasmids encoding mycHis-WSX or V5-CNTF-R, and with PCAG-human gp130 if required. At 36 hrs after transfection, the cells were added with biotin-labeled HN or HNG of indicated concentrations in the presence or the absence of HNG (S14G-HN) or HNA (C8A-HN) of indicated concentrations (Hashimoto et al., 2001 a). After 6 hrs incubation, they were fixed with 4% paraformaldehyde in PBS for 30 min. After washing with PBS, cells were stained with FITC-conjugated avidin (Molecularprobe, Eugene, Oreg., USA). Immunofluorescence intensity was measured (excitation=485 nm, emission=535 nm) with a spectrofluorometer (Wallac1420 ARVOsx Multi Label Counter). Immunohistochemical analysis was done with a laser-scanning, confocal microscope LSM (Carl Zeiss, Germany).

Peptide text beside a SMILES is read from it.

For the compound `CC[C@H](C)[C@H](NC(=O)[C@H](CCC(=O)O)NC(=O)CNC(=O)[C@@H](NC(=O)[C@H](CC(C)C)NC(=O)[C@H](CC(C)C)NC(=O)[C@H](CC(C)C)NC(=O)[C@H](CC(C)C)NC(=O)[C@H](CS)NC(=O)[C@H](CO)NC(=O)[C@H](Cc1ccccc1)NC(=O)CNC(=O)[C@H](CCCNC(=N)N)NC(=O)[C@@H]1CCCN1C(=O)[C@H](C)NC(=O)[C@@H](N)CCSC)[C@@H](C)O)C(=O)N[C@@H](CC(=O)O)C(=O)N[C@@H](CC(C)C)C(=O)N1CCC[C@H]1C(=O)N[C@H](C(=O)N[C@@H](CCCCN)C(=O)N[C@@H](CCCNC(=N)N)C(=O)N[C@@H](CCCNC(=N)N)C(=O)N[C@@H](C)C(=O)O)C(C)C` [HNG, S14 G-Humanin] (H-MAPRGFSCLLLLTGEIDLPVKRRA-OH; N-terminus and C-terminus assumed), the “binding to F11 cells” value is recorded as “almost completely inhibited” (expression of endogenous CNTF-R and WSX-1 simultaneously decreased by siRNA); “significantly decreased” (expression of endogenous CNTF-R or WSX-1 decreased by siRNA).
